# Calls of active or inactive are those of the source.
# Columns and labels:
# Format in all cases: functional
# [1] = target: T1, Replicative DNA helicase DnaB (Mycobacterium tuberculosis, UniProt P9WMR3); assay: DnaB intein splicing inhibitors, dose response, biochemical, cell-free fluorescence (AID 449749)
# T1 sequence (P9WMR3 whole entry): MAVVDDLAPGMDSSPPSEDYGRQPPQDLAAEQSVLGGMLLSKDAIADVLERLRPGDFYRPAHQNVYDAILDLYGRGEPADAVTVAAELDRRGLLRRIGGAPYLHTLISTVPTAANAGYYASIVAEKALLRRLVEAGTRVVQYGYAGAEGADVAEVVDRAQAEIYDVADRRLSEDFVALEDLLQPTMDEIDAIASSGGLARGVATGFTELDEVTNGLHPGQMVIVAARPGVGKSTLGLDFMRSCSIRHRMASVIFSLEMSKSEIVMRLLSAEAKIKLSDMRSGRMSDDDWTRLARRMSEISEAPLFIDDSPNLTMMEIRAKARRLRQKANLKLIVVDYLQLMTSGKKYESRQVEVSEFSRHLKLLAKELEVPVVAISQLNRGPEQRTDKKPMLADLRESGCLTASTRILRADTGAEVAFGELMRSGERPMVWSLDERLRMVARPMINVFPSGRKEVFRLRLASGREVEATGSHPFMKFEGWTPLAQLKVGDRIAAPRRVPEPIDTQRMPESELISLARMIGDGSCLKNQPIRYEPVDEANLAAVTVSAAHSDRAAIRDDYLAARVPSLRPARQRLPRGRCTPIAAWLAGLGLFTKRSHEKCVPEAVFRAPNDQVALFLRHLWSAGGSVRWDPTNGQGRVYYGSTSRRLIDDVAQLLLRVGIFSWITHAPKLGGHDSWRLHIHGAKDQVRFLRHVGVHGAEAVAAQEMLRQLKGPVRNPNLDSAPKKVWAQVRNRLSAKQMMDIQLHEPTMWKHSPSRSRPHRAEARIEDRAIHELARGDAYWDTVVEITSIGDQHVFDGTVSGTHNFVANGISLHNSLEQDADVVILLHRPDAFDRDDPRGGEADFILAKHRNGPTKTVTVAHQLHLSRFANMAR
# Protein RecA = target: T2, Protein RecA (Mycobacterium tuberculosis, UniProt P9WHJ3); assay: Fluorescence Cell-Free Homogeneous Dose Retest to Identify Inhibitors of RecA-Intein Splicing Activity. [Related pubchem assays (depositor defined):AID2097, AID2223, AID489010, AID492950]
# T2 sequence (P9WHJ3 whole entry): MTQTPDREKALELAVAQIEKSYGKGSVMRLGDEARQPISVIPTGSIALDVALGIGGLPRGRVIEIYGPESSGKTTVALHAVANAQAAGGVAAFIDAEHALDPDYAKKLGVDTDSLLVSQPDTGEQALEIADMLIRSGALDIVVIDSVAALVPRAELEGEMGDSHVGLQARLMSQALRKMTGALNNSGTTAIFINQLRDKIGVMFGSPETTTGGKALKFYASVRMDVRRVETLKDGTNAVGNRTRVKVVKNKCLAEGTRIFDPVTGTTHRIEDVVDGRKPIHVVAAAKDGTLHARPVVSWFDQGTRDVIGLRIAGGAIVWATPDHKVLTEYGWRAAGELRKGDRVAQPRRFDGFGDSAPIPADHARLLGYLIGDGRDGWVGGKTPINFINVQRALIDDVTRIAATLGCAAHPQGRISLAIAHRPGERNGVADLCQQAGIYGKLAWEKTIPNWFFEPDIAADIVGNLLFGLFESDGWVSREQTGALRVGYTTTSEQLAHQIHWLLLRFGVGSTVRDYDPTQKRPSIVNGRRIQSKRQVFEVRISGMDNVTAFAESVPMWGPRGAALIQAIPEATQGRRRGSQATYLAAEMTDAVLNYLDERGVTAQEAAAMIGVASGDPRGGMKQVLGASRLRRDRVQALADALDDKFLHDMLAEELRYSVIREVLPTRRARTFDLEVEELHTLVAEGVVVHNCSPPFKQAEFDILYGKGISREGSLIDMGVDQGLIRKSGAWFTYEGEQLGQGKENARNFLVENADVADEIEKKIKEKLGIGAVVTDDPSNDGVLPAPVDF
# [2] = target: T3, Apoptotic protease-activating factor 1 (Homo sapiens, UniProt O14727)
# T3 sequence (O14727 whole entry): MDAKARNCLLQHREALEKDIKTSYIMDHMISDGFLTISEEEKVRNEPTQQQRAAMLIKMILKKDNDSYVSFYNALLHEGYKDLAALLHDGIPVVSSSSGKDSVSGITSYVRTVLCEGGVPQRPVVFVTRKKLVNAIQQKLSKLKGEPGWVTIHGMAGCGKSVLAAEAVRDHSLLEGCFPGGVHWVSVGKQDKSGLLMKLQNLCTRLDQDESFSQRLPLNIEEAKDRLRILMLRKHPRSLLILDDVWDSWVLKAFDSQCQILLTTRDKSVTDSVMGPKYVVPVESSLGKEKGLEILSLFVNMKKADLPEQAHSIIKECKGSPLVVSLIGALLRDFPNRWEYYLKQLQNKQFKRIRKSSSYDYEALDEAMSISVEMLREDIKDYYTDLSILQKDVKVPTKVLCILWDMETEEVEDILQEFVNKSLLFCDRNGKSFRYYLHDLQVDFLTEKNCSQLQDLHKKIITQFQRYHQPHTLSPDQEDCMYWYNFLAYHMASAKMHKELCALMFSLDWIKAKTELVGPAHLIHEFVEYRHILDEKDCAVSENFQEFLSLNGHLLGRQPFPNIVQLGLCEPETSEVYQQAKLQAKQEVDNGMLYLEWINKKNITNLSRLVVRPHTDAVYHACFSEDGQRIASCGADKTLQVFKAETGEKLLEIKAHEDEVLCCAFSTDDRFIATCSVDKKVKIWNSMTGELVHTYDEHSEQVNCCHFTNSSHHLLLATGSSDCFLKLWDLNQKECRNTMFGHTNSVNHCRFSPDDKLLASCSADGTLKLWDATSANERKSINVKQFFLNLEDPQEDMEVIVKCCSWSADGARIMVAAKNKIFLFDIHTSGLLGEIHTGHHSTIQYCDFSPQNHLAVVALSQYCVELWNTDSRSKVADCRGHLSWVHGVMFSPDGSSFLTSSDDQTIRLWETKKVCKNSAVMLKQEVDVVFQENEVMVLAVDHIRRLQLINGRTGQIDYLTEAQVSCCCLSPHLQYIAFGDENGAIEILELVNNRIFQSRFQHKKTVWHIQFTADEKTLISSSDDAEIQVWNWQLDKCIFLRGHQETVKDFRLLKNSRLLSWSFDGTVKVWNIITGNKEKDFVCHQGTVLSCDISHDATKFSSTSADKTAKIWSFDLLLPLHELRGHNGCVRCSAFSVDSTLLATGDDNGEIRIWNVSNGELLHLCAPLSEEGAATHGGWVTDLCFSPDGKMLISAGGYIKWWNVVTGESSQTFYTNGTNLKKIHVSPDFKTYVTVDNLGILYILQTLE
SMILES,AC50 [1],EC50 (Protein RecA),IC50 [2]
O=C(Nc1ccccc1)c1nnsc1[S+]([O-])c1ccc(Cl)cc1 (stereo not drawn),0.964 µM (active),5.92 µM (active),–
O=C1C=C(Nc2ccccc2)c2ccccc2C1=O,0.664 µM (active),0.723 µM (active),2.23 µM (active)
CC1OC(Nc2cccc3ccccc23)C(O)C(O)C1O (stereo not drawn),> 380 µM (inactive),75.1 µM (active),14.8 µM (active)

# Source: ChEMBL document CHEMBL1201862, “PubChem BioAssay data set” (2004)
